Drawing on a melting point compilation (Tetko et al.; mined from patent text by program, amines drawn as free bases though some values may be those of a salt), this text covers melting point for 87 compounds.

Regarding `COc1ccc2c(c1)Cc1c-2[nH]c2ccc(OCc3ccccc3)cc12`, the melting point (in general, the temperature, or range, at which the solid turns liquid) lay within 189 to 193 °C.
In the case of `Cc1cc(CC(C)(C)C=O)cc(C)c1O`, the melting point lay in the range of 72 to 73 °C.
For `CCCCNC(=O)c1ccc(S(=O)(=O)CCCn2c(CCC)nc3c(N)nc(C)c(C)c32)cc1`, the melting point was in the range of 147 to 149 °C.
As for `CC1=C(C(=O)OC(C)C)C(c2cccc([N+](=O)[O-])c2)N(C(=O)N(C)C)C(N)=N1` (configuration not stated), the figure is 202 to 203 °C; as for `Cc1ccccc1C=C1CCc2c1oc1ccc(C#N)cc1c2=O`, 260 to 262 °C.
As for `CC(C)Oc1cccc(=O)n1O`, the figure is 119 to 120 °C.
For `COc1cc2c(cc1OC)C(c1cccc([N+](=O)[O-])c1)=NN=C(C)C2`, the melting point lay within 196 to 198 °C.
In the case of `CC(C)Nc1cccnc1N1CCN(C(=O)c2ccc(C(=O)NC(CO)CO)cc2)CC1`, the melting point is 147 to 149 °C.
Regarding `CC(C)CCOc1cccc2oc(-c3nnn[nH]3)cc(=O)c12`, the melting point fell in the range of 165 to 166 °C.
Next, `CCOc1cc(Cn2cc(CCC(=O)O)c(-c3ccccc3)c2)cc(OCc2csc(-c3cnccn3)n2)c1`: 97 to 98 °C.
For `CC(Oc1ccc(C(=O)NCCN(O)C(N)=O)cc1)c1ccccc1` (configuration not stated), the melting point lay within 164 to 166 °C.
In turn, `N#Cc1cccc2c(O)c(C(=O)NCc3ccc(Cl)cc3)cnc12` registered a melting point of 287 to 289 °C.
Next, `Nc1sc2c(c1C(=O)c1ccc(OCc3ccccc3)cc1)CCN(C(=O)OCc1ccccc1)C2`: 151 to 152 °C; `CSc1nncc(C(C)(C)C)n1`: 91 to 93 °C.
Compound `Cc1cccc(C(=O)NC(C)C)c1N` registered a melting point of 149 to 151 °C.
Regarding `OCC1OC(c2c(Cl)c(Cl)cc3nc(Cl)cn23)C(O)C1O` (configuration not stated), the melting point lay in the range of 267 to 268 °C.
With `N=C(N)Nc1nc2ccc([N+](=O)[O-])cc2[nH]1`, the melting point was in the range of 305 to 307 °C.
Compound `COc1ccc(-c2ccccc2)c2sc(N)nc12` showed a melting point of 207 to 208 °C.
The compound `N#Cc1ccc(C(CC2CCCC2)C(=O)Nc2nccs2)cc1` (configuration not stated) yielded a melting point of 62 to 64 °C.
On to `COC(=O)c1ccc(O)c(C(=O)OC)c1`, for which the melting point fell in the range of 93 to 94 °C.
`Cc1cc(C(=CNc2ccc(O)cc2)C(=O)c2ccccc2)on1` yielded a melting point of 73 to 74 °C.
As for `COC(=O)COc1c(Br)cc(-c2c3ccccc3c(Br)c3oc4ccccc4c23)cc1Br`, the figure is 188 to 189 °C; as for `COc1cc2c(c(Cl)c1Cl)CCC2=O`, 163 to 165 °C.
`CCOC(=O)COc1cc(F)c(C)cc1C(=S)NCc1ccc(Br)cc1F`: the melting point lay within 98 to 100 °C.
Turning to `CCN1C(=O)C(C)(C)C(=O)N(C)c2cc(CCN(CCn3cc(C)c4occc4c3=O)Cc3cnccc3C)ccc21`, the melting point lay within 165 to 166 °C.
Next, `O=C(N1CCOCC1)N1CCN(CCNc2ncc3ncnc(Nc4ccc(F)c(Cl)c4)c3n2)CC1`: 163 to 168 °C; `O=C(c1ccccc1)c1cc(Cl)cc(I)c1O`: 110 to 111 °C; `CS(=O)(=O)N(Cc1cncnc1)c1ccc(F)cc1F`: 142 to 145 °C.
For `CCOC(=O)c1cc(NC(=O)c2ccc(C)cc2)ccc1N`, the melting point was 167 to 171 °C.
For the compound `Nc1ccccc1C(=O)NCCN1CCC(Nc2nc3ccccc3n2Cc2ccc(F)cc2)CC1`, the melting point turned out to be 172 °C.
Turning to `COc1cc(OC)nc(NC(=O)NS(=O)(=O)Oc2ccccc2)n1`, the melting point fell in the range of 136 to 139 °C.
Regarding `CC(=Cc1ccc(C(=O)O)cc1)[N+](=O)[O-]`, the melting point fell in the range of 212 to 214 °C.
`O=C(c1ccc(-c2ccc(OCCCN3CCCCC3)cc2)cc1)N1CCCCC1` returned a melting point of 122 °C.
Compound `CCCCCCCCCCCCCCCCc1c(O)c(CN(C)C(=O)Oc2cccc([N+](=O)[O-])c2)c(CCC)c(O)c1CN(C)C(=O)Oc1cccc([N+](=O)[O-])c1` registered a melting point of 89 to 95 °C.
As to `CC(=O)Oc1ccc(C=Cc2ccc3ccccc3n2)cc1`, the melting point lay in the range of 127 to 128 °C.
As for `COc1ccc(C2C3=C(COC3=O)Nc3ccc4cn[nH]c4c32)cc1[N+](=O)[O-]` (configuration not stated), the figure is 217 to 218 °C; as for `CCN1CCN(c2ccc(Nc3cc(-c4cccc(-n5ncc6cc(C(C)(C)C)cc(F)c6c5=O)c4CO)nn(C)c3=O)nc2)CC1`, 245 to 247 °C.
Turning to `CC(CC#CCN1CCN(C)CC1)C(=O)N1c2ccccc2C(=O)Nc2cccnc21` (configuration not stated), the melting point fell in the range of 212 to 214 °C.
As for `Cc1nc2c(C(F)(F)F)cccc2c(=O)n1C1CCC(=O)NC1=O` (configuration not stated), the figure is 351 to 353 °C.
`CCC(C)(CC)c1nnc(N)s1`: the melting point was 138 to 140 °C.
`CCCc1nc2c(N)nc3ccccc3c2n1CCCCC(=O)N(C)OC`: the melting point lay in the range of 150 to 151 °C.
`CCCOc1ccc(S(=O)(=O)NC[C@@H](C(=O)NO)N2CCCCC2)cc1` yielded a melting point of 147 °C.
`COCC1=C(C(=O)NCCCN2CCC(c3ccc(F)cc3)CC2)C(c2ccc(F)c(F)c2)NC(=O)N1` (single isomer, unassigned; (-)): the melting point is 149 to 150 °C.
As for `Cc1oc(-c2ccccc2)nc1C=Cc1ccc(/C=C/C=O)cc1`, the melting point fell in the range of 191 to 192 °C.
As to `O=C1NS(=O)(=O)c2cccc(Cl)c21`, the melting point lay in the range of 210 to 212 °C.
The compound `CCOC(=O)c1cn(C2CC2)c2nc3c(F)c(F)c(F)cc3cc2c1=O` gave a melting point of 260 °C.
Compound `O=C1Nc2ccccc2SC1CCCCN1CCN(c2ccc(F)cc2)CC1` (configuration not stated) registered a melting point of 150 to 151 °C.
As for `CCC(CC)CNC(=O)c1ccc2cccc(Cc3ccc(C(=O)NS(=O)(=O)c4ccccc4C)cc3OC)c2c1`, the melting point lay in the range of 126 to 128 °C.
Next, `CCOCc1cc2ccccc2oc1=Nc1ccc(F)cc1`: 84 to 86 °C; `COC(=O)C(CNC(=O)C1CC1)c1cccc2ccccc12` (configuration not stated): 140 to 142 °C; `O=C(CCl)COc1c(Cl)cc(Cl)cc1Cl`: 55 °C.
Next, `CN(C)S(=O)(=O)c1cccc(-c2nc(N)nc(N)n2)c1`: 250 to 251 °C.
Next, `CCC(CC)Nc1c([N+](=O)[O-])cc(C)c(COC(=O)CCl)c1[N+](=O)[O-]`: 45 to 48 °C; `Nc1cc2c(Nc3ccc4c(cnn4Cc4cccc(F)c4)c3)ncnc2cn1`: 241 to 244 °C; `O=C(O)CCCCCCCOc1ccccc1O`: 60 to 64 °C.
Compound `CC(C)c1nn(-c2ccc(C(F)(F)F)cn2)cc1COc1cc(CCC(=O)O)n(C)n1` gave a melting point of 141 to 142 °C.
In turn, `Cn1nc(-c2ccccc2)c(Sc2ccccc2)c1-c1ccccc1` displayed a melting point of 109 to 110 °C.
The compound `CC(=O)c1ccc(CNC(=O)c2cccnc2Oc2cccnc2)s1` yielded a melting point of 201 to 203 °C.
In the case of `O=S(=O)(Nc1ccccc1OCc1ccc2ccccc2n1)c1cccc(C(F)(F)F)c1`, the melting point was in the range of 154 to 155 °C.
Compound `CCOC(=O)C(C)(C)Oc1ccc(-c2ccc(CCNC(=O)c3ccccc3)cc2)cc1` gave a melting point of 100 °C.
In the case of `C#Cc1cccc(Nc2ncnc3cnc(NCc4ccc(OC)cc4)cc23)c1`, the melting point was in the range of 200 to 203 °C.
For `Cc1ccc(C(C=NO)=NO)cc1`, the melting point lay within 170 to 176 °C.
`CCCN(C)c1nc(N)nc2c1ncn2C1CC(F)C(CO)O1` (configuration not stated) gave a melting point of 80 to 84 °C.
For `CCS(=O)(=O)CCC(=O)NCC(=O)N1Cc2ccccc2Oc2ccc(Cl)cc21`, the melting point lay within 108 to 109 °C.
Regarding `CC(C)(N=NC(C)(C)C(=O)NC1CCCCC1)C(=O)NC1CCCCC1`, the melting point is 116 °C.
On to `O=C(NC(Cc1ccccc1)C(=O)O)OCc1ccc(-c2ccccc2)cc1` (configuration not stated), for which the melting point was determined as 142 °C.
As for `COc1cc(I)ccc1C(=O)Nc1ccc(OC)c(N2CCN(C)CC2)c1`, the melting point was in the range of 168 to 170 °C.
For the compound `Cc1cc(O)c(S(=O)CC(C)C)c(=O)o1` (configuration not stated), the melting point is 102 to 103 °C.
Next, `COc1cccc(OC)c1C=CC(=O)C=Cc1c(OC)cccc1OC`: 152 to 154 °C.
Compound `CNC(=O)Nc1ccc(CCN2CCC(Nc3nc4ccccc4n3Cc3ccc(F)cc3)CC2)cc1` came in with a melting point of 300 °C.
Next, `CN(C(CCn1c(=O)cc(Cl)[nH]c1=O)C(=O)NO)S(=O)(=O)c1ccc(Oc2cccc(F)c2)cc1` (configuration not stated): 147 to 148 °C.
As for `CC(C)(C)c1ccc(NC(=O)c2ccc(C3=NCCS3)cc2)cc1`, the figure is 176 to 177 °C.
As for `CN1C(=O)c2cccnc2N(C)c2nc(-c3ccc[nH]3)ccc21`, the figure is 158 to 160 °C.
Regarding `COc1ccc2[nH]c(C(=O)Nc3cc(NC(=O)OCc4ccccc4)c4ccccc4c3CCOC(C)=O)cc2c1`, the melting point was 98 to 110 °C.
`CC12CCC(C1)C1(C)Oc3ccccc3C21C` (configuration not stated) showed a melting point of 68 °C.
`Cc1nc(-c2c(Cl)cccc2Cl)n[nH]1` returned a melting point of 221 to 226 °C.
The compound `COc1ccc(C(=O)O)c(OCc2cccc(OCc3ccc4ccccc4n3)c2)c1` gave a melting point of 117 to 118 °C.
Next, `CN1C(=O)c2cccc(S(=O)(=O)NC(C)(C)C)c2C1=O`: 160 to 163 °C; `Cc1nc(N2CCCC(=Cc3cccnc3)C2=O)sc1C(=O)NCc1ccccc1`: 206 to 208 °C.
As for `CC(=O)N1CC(=O)N(CC(N)=O)C1(C)C`, the melting point fell in the range of 188 to 189 °C.
On to `O=c1oc(-c2cccc(OCc3ccccc3)c2)cc(O)c1SCCc1ccccc1`, for which the melting point lay in the range of 126 to 127 °C.
Next, `CC(N)(C(N)=O)C(F)(F)F` (configuration not stated): 84 to 85 °C; `O=C1CCCN1C(=O)Oc1ccccc1[N+](=O)[O-]`: 135 to 136 °C.
For `CC1(C)Oc2cc(Cl)c(C#N)cc2C2OC21` (configuration not stated), the melting point was in the range of 129 to 132 °C.
In turn, `CC(=O)N[C@@H](C)COc1ccc2nc(-c3ccc(OCC4CC4)c(Cl)c3)oc2c1` registered a melting point of 156 to 159 °C.
Regarding `COc1ccc(-c2nc3ccc(OC(F)(F)F)cc3[nH]2)c(OC)c1`, the melting point lay within 201 to 203 °C.
Compound `CCOC(=O)Cn1nc(-c2ccc(OC)cc2)cc(C(=O)OCC)c1=O` displayed a melting point of 77.1 to 77.8 °C.
